Measured values reported in ChEMBL document CHEMBL1201862, “PubChem BioAssay data set” (2004).
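Values below derive from 48-hour exposures of cells grown in 96-well plates, with endpoints linearly interpolated between the two concentrations bracketing the appropriate inhibition level. Abbreviation: GI50, concentration required for 50% inhibition of growth.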 Activity calls are given as the source filed them. Rule as the data show it: active = GI50 up to about 1.1 µM and inactive = higher.

Assays:
Experiment in all cases: growth of human tumour cells (NCI), 48 h
[1] = test system: SK-OV-3
[2] = test system: U-251
[3] = test system: UO-31
[4] = test system: Malme-3M
[5] = test system: SNB-75
[6] = test system: SN12C
[7] = test system: M14
[8] = test system: NCI-H226
[9] = test system: TK-10
[10] = test system: CAKI-1
[11] = test system: LOX IMVI
[12] = test system: MCF7
[13] = test system: OVCAR-8
[14] = test system: UACC-257
[15] = test system: NCI/ADR-RES
[16] = test system: EKVX
[17] = test system: HCT-15
[18] = test system: COLO 205
[19] = test system: T47D

## O=C1CCC2SC1CCC2=O
[1]
  GI50: > 100 µM (inactive)
[2]
  GI50: > 100 µM (inactive)
[3]
  GI50: > 100 µM (inactive)
[4]
  GI50: > 100 µM (inactive)
[5]
  GI50: > 100 µM (inactive)
[6]
  GI50: > 100 µM (inactive)
[7]
  GI50: > 100 µM (inactive)
[8]
  GI50: > 100 µM (inactive)
[9]
  GI50: > 100 µM (inactive)
[10]
  GI50: > 100 µM (inactive)
[11]
  GI50: > 100 µM (inactive)
[12]
  GI50: > 100 µM (inactive)
[13]
  GI50: > 100 µM (inactive)
[14]
  GI50: > 100 µM (inactive)
[15]
  GI50: > 100 µM (inactive)
[16]
  GI50: > 100 µM (inactive)
[17]
  GI50: > 100 µM
[18]
  GI50: > 100 µM (inactive)

## Cn1nc(S(N)(=O)=O)s/c1=N/S(=O)(=O)c1ccc(N)cc1
[1]
  GI50: > 100 µM (inactive)
[2]
  GI50: > 100 µM (inactive)
[3]
  GI50: > 100 µM (inactive)
[4]
  GI50: > 100 µM (inactive)
[5]
  GI50: > 100 µM (inactive)
[7]
  GI50: > 100 µM (inactive)
[8]
  GI50: > 100 µM (inactive)
[9]
  GI50: > 100 µM (inactive)
[10]
  GI50: > 100 µM (inactive)
[13]
  GI50: > 100 µM (inactive)
[15]
  GI50: > 100 µM (inactive)
[16]
  GI50: > 100 µM (inactive)
[17]
  GI50: > 100 µM
[18]
  GI50: > 100 µM (inactive)

## COc1ccc2nc3n(c2c1)C(c1c(F)cccc1Cl)SC3 (stereo unspecified)
[1]
  GI50: > 100 µM (inactive)
[2]
  GI50: > 100 µM (inactive)
[3]
  GI50: > 100 µM (inactive)
[5]
  GI50: > 100 µM (inactive)
[6]
  GI50: > 100 µM (inactive)
[7]
  GI50: > 100 µM (inactive)
[9]
  GI50: > 100 µM (inactive)
[10]
  GI50: > 100 µM (inactive)
[11]
  GI50: > 100 µM (inactive)
[12]
  GI50: > 100 µM (inactive)
[13]
  GI50: 46.8 µM (inactive)
[14]
  GI50: > 100 µM (inactive)
[15]
  GI50: 23.3 µM (inactive)
[16]
  GI50: > 100 µM (inactive)
[17]
  GI50: > 100 µM
[19]
  GI50: > 100 µM (inactive)
[18]
  GI50: > 100 µM (inactive)

## CN(C)S(=O)(=O)/N=C/c1cccc(/C=N/S(=O)(=O)N(C)C)c1
[1]
  GI50: > 100 µM (inactive)
[2]
  GI50: > 100 µM (inactive)
[3]
  GI50: > 100 µM (inactive)
[5]
  GI50: 22.9 µM (inactive)
[6]
  GI50: > 100 µM (inactive)
[7]
  GI50: > 100 µM (inactive)
[8]
  GI50: > 100 µM (inactive)
[9]
  GI50: > 100 µM (inactive)
[10]
  GI50: > 100 µM (inactive)
[11]
  GI50: > 100 µM (inactive)
[12]
  GI50: 46.7 µM (inactive)
[13]
  GI50: 51.3 µM (inactive)
[14]
  GI50: > 100 µM (inactive)
[15]
  GI50: 81.7 µM (inactive)
[16]
  GI50: 64.9 µM (inactive)
[17]
  GI50: > 100 µM
[19]
  GI50: > 100 µM (inactive)
[18]
  GI50: 65.9 µM (inactive)

## CCC(O)c1ccc(/N=C/c2ccccc2O)cc1 (stereo unspecified)
[1]
  GI50: > 100 µM (inactive)
[2]
  GI50: > 100 µM (inactive)
[3]
  GI50: > 100 µM (inactive)
[4]
  GI50: > 100 µM (inactive)
[5]
  GI50: > 100 µM (inactive)
[7]
  GI50: > 100 µM (inactive)
[8]
  GI50: > 100 µM (inactive)
[9]
  GI50: > 100 µM (inactive)
[10]
  GI50: > 100 µM (inactive)
[11]
  GI50: > 100 µM (inactive)
[12]
  GI50: > 100 µM (inactive)
[15]
  GI50: > 100 µM (inactive)
[16]
  GI50: > 100 µM (inactive)
[17]
  GI50: > 100 µM
[19]
  GI50: 8.97 µM (inactive)
[18]
  GI50: 49.9 µM (inactive)

## COc1ccc(C(O)c2nccn2C)c(OC)c1 (stereo unspecified)
[1]
  GI50: 17.4 µM (inactive)
[2]
  GI50: > 100 µM (inactive)
[3]
  GI50: > 100 µM (inactive)
[4]
  GI50: > 100 µM (inactive)
[5]
  GI50: 29.6 µM (inactive)
[6]
  GI50: > 100 µM (inactive)
[7]
  GI50: > 100 µM (inactive)
[8]
  GI50: > 100 µM (inactive)
[9]
  GI50: > 100 µM (inactive)
[10]
  GI50: > 100 µM (inactive)
[12]
  GI50: > 100 µM (inactive)
[13]
  GI50: > 100 µM (inactive)
[14]
  GI50: > 100 µM (inactive)
[15]
  GI50: > 100 µM (inactive)
[16]
  GI50: > 100 µM (inactive)
[17]
  GI50: > 100 µM
[18]
  GI50: > 100 µM (inactive)

## O=c1cc(CSc2c(-c3ccccc3)c(=O)n(-c3ccccc3)c(=S)n2-c2ccccc2)[nH]c(=O)[nH]1
[1]
  GI50: > 100 µM (inactive)
[2]
  GI50: > 100 µM (inactive)
[3]
  GI50: > 100 µM (inactive)
[5]
  GI50: > 100 µM (inactive)
[6]
  GI50: > 100 µM (inactive)
[7]
  GI50: > 100 µM (inactive)
[9]
  GI50: > 100 µM (inactive)
[10]
  GI50: > 100 µM (inactive)
[12]
  GI50: > 100 µM (inactive)
[13]
  GI50: > 100 µM (inactive)
[14]
  GI50: > 100 µM (inactive)
[15]
  GI50: > 100 µM (inactive)
[16]
  GI50: > 100 µM (inactive)
[17]
  GI50: > 100 µM
[19]
  GI50: > 100 µM (inactive)
[18]
  GI50: > 100 µM (inactive)
